The test system of one experiment is NCI-H226 cells. In words: Viability assay in NCI-H226 (Yap-dependent) cells, CyQuant. It is filed as cell-based, human. Conditions: Homo sapiens, NCI-H226, 96 h. Put shortly: (§1)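 Seeded cells were dosed 24 h later in duplicate (10-point, 1:3 dilutions, top 30 μM final, 0.3% DMSO) and incubated 96 h at 37 °C. Viability was read with CyQUANT DNA dye after 1 h, fluorescence bottom read. NCI-H226 in RPMI 1640 medium; SW620 YAP/TAZ CRISPR knockout in DMEM/F-12 medium.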

The next experiment relates to SW620 Yap KO cells. In words: Viability assay in SW620 Yap KO (Yap independent) cells, CyQuant. It counts as cell-based. Conditions: Homo sapiens, SW-620, 96 h. Put shortly:
as §1

The next experiment relates to YAP-TEAD interaction. In words: SK-HEP-1 reporter assay (8xTEAD responsive elements driving NanoLuc luciferase). Conditions: Homo sapiens, SK-HEP1, SK-HEP-1 reporter assay. It is filed as cell-based. The gist of the method: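 Reporter read-out: NanoLuc luminescence from 8×TEAD elements stably integrated in SK-HEP-1 cells, after 24 h compound exposure at 37° C. Ten concentrations tested in duplicate, top 30 μM final, 0.3% DMSO; IC50 from curve.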
(Reporter assays use an easily measured gene product as a stand-in for the process of interest.)

Where [1] appears, read: n.d. = value not detectable below threshold given in parentheses, ND = not determinable within the entire range.

The structures appear in SMILES notation. pIC50: −log10 of the molar value.

What is called pIC50 is the negative decadic logarithm of the IC50, by convention in mol/L. For the compound `Cn1nc2c3cc(C(=O)N=S(C)(=O)CCO)ccc3n(-c3ccc(C(F)(F)F)cc3)c2n1` (stereo not drawn) [Example C31, N-[(2-hydroxyethyl)(methyl)oxo-A6-sulfanylidene]-2-methyl-4-[4-(trifluoromethyl)phenyl]-2H,4H-[1,2,3]triazolo[4,5-b]indole-7-carboxamide], the pIC50 with NCI-H226 cells (class symbols) was 7.00 to 9.00; in the experiment with SW620 Yap KO cells (setting [1]), < 4.52; in the experiment with YAP-TEAD interaction (class symbols), 7.00 to 8.00.
The matching figures for `O=C(O)c1ccc2c(c1)c1cn(C(F)(F)F)nc1n2-c1ccc(C(F)(F)F)cc1` [Example C35, 2-(trifluoromethyl)-8-[4-(trifluoromethyl)phenyl]-2H,8H-pyrazolo[3,4-b]indole-5-carboxylic acid]: 5.00 to 6.00, < 4.52 and 7.00 to 8.00.
The matching figures for `Cc1snc2c1c1cc(C(=O)NC3CC3)ccc1n2-c1ccc(C(F)(F)F)cc1` [Example C41, N-cyclopropyl-3-methyl-8-[4-(trifluoromethyl)phenyl]-8H-[1,2]thiazolo [3,4-b]indole-5-carboxamide]: 7.00 to 9.00, < 4.52 and 7.00 to 8.00.
The matching figures for `Cc1snc2c1c1cc(C(=O)NCc3ccccn3)ccc1n2-c1ccc(C(F)(F)F)cc1` [Example C42, 3-methyl-N-[(pyridin-2-yl)methyl]-8-[4-(trifluoromethyl)phenyl]-8H-[1,2]thiazolo[3,4-b]indole-5-carboxamide]: 7.00 to 9.00, < 4.52 and 7.00 to 8.00.
With `C[C@@H](CCN(C)C(=O)c1ccc2c(c1)c1cn(C)nc1n2-c1ccc(C(F)(F)F)cc1)NC(=O)c1ccc2c(c1)c1cn(C)nc1n2-c1ccc(C(F)(F)F)cc1` [Example C48, N,2-dimethyl-N-[(3S)-3-({2-methyl-8-[4-(trifluoromethyl)phenyl]-2H,8H-pyrazolo[3,4-b]indol-5-yl}formamido)butyl]-8-[4-(trifluoromethyl)phenyl]-2H,8H-pyrazolo[3,4-b]indole-5-carboxamide], the pIC50 in the experiment with NCI-H226 cells (class symbols) was 5.00 to 6.00; in the experiment on SW620 Yap KO cells (setting [1]) it was < 5.49; in the experiment on YAP-TEAD interaction (class symbols) it was 5.00 to 7.00.
The matching figures for `Cn1cc2c3cc(C4CC(Oc5cncnc5)=NO4)ccc3n(-c3ccc(C(F)(F)F)cc3)c2n1` (stereo not drawn) [Example C50, 5-[(5-{2-methyl-8-[4-(trifluoromethyl)phenyl]-2H,8H-pyrazolo[3,4-b]indol-5-yl}-4,5-dihydro-1,2-oxazol-3-yl)oxy]pyrimidine]: 6.00 to 7.00, < 4.52 and 5.00 to 7.00.
As for `CNC(=O)c1ccc2c(c1)c1c(C)snc1n2-c1ccc(C(F)(F)F)cc1` [Example C51, N,3-dimethyl-8-[4-(trifluoromethyl)phenyl]-8H-[1,2]thiazolo[3,4-b]indole-5-carboxamide], the figures for the pIC50 in the experiment with NCI-H226 cells (class symbols), in the experiment with SW620 Yap KO cells (class symbols) and in the experiment on YAP-TEAD interaction (class symbols) were 7.00 to 9.00, 5.00 to 6.00 and 7.00 to 8.00, respectively.
For the compound `Cc1snc2c1c1cc(C(=O)NCC(C)(C)O)ccc1n2-c1ccc(C(F)(F)F)cc1` [Example C52, N-(2-hydroxy-2-methylpropyl)-3-methyl-8-[4-(trifluoromethyl)phenyl]-8H-[1,2]thiazolo[3,4-b]indole-5-carboxamide], the pIC50 in the experiment with NCI-H226 cells (class symbols) is 7.00 to 9.00; in the experiment with SW620 Yap KO cells (setting [1]), < 5.49; with YAP-TEAD interaction (class symbols) it was 7.00 to 8.00.
The matching figures for `Cn1cc2c3cc(C(=O)NCc4ccccc4)ccc3n(-c3ccc(C(F)(F)F)cc3)c2n1` [Example C56, N-benzyl-2-methyl-8-[4-(trifluoromethyl)phenyl]-2H,8H-pyrazolo[3,4-b]indole-5-carboxamide]: 7.00 to 9.00, < 4.52 and 7.00 to 8.00.
Take `Cn1cc2c3cc(S(=O)(=O)NCCO)ccc3n(-c3ccc(C(F)(F)F)cc3)c2n1` [Example C57, N-(2-hydroxyethyl)-2-methyl-8-[4-(trifluoromethyl)phenyl]-2H,8H-pyrazolo[3,4-b]indole-5-sulfonamide]: the pIC50 is 5.00 to 6.00 in the experiment with NCI-H226 cells (class symbols), < 4.52 in the experiment with SW620 Yap KO cells (setting [1]) and 7.00 to 8.00 in the experiment with YAP-TEAD interaction (class symbols).
The matching figures for `Cc1snc2c1c1cc(C(=O)NCc3ccncc3)ccc1n2-c1ccc(C(F)(F)F)cc1` [Example C62, 3-methyl-N-[(pyridin-4-yl)methyl]-8-[4-(trifluoromethyl)phenyl]-8H-[1,2]thiazolo[3,4-b]indole-5-carboxamide]: 7.00 to 9.00, < 5.49 and 7.00 to 8.00.
The matching figures for `Cc1snc2c1c1cc(C(=O)NCc3ccncn3)ccc1n2-c1ccc(C(F)(F)F)cc1` [Example C64, 3-methyl-N-[(pyrimidin-4-yl)methyl]-8-[4-(trifluoromethyl)phenyl]-8H-[1,2]thiazolo[3,4-b]indole-5-carboxamide]: 7.00 to 9.00, < 5.49 and 7.00 to 8.00.
In the case of `Cc1snc2c1c1cc(C(=O)NCCO)ccc1n2-c1ccc(C(F)(F)F)cc1` [Example C65, N-(2-hydroxyethyl)-3-methyl-8-[4-(trifluoromethyl)phenyl]-8H-[1,2]thiazolo[3,4-b]indole-5-carboxamide], the pIC50 was 7.00 to 9.00 with NCI-H226 cells (class symbols), < 5.49 in the experiment on SW620 Yap KO cells (setting [1]) and 7.00 to 8.00 in the experiment on YAP-TEAD interaction (class symbols).
Consider `Cc1snc2c1c1cc(C(=O)N[C@H](C)CO)ccc1n2-c1ccc(C(F)(F)F)cc1` [Example C66, N-[(2R)-1-hydroxypropan-2-yl]-3-methyl-8-[4-(trifluoromethyl)phenyl]-8H-[1,2]thiazolo[3,4-b]indole-5-carboxamide], for which the pIC50 is 7.00 to 9.00 in the experiment with NCI-H226 cells (class symbols), < 5.49 in the experiment with SW620 Yap KO cells (setting [1]) and 7.00 to 8.00 with YAP-TEAD interaction (class symbols).
The matching figures for `Cc1snc2c1c1cc(C(=O)N[C@@H](CO)c3ccccn3)ccc1n2-c1ccc(C(F)(F)F)cc1` [Example C67, N-[(1R)-2-hydroxy-1-(pyridin-2-yl)ethyl]-3-methyl-8-[4-(trifluoromethyl)phenyl]-8H-[1,2]thiazolo[3,4-b]indole-5-carboxamide]: 7.00 to 9.00, < 5.49 and 7.00 to 8.00.
The matching figures for `Cc1snc2c1c1cc(C(=O)N[C@@H](C)CO)ccc1n2-c1ccc(C(F)(F)F)cc1` [Example C70, N-[(2S)-1-hydroxypropan-2-yl]-3-methyl-8-[4-(trifluoromethyl)phenyl]-8H-[1,2]thiazolo [3,4-b]indole-5-carboxamide]: 7.00 to 9.00, < 5.49 and 7.00 to 8.00.
On to `Cn1cc2c3cc(S(=O)(=O)NC4CC4)ccc3n(-c3ccc(C(F)(F)F)cc3)c2n1` [Example C72, N-cyclopropyl-2-methyl-8-[4-(trifluoromethyl)phenyl]-2H,8H-pyrazolo[3,4-b]indole-5-sulfonamide], for which the figures for the pIC50 with NCI-H226 cells (n.d. = value not detectable below threshold given in parentheses), in the experiment with SW620 Yap KO cells (setting [1]) and with YAP-TEAD interaction (class symbols) were < 5.49, < 5.49 and 8.00 to 9.00, respectively.
Regarding `CC[C@H](CO)NC(=O)c1ccc2c(c1)c1c(C)snc1n2-c1ccc(C(F)(F)F)cc1` [Example C77, N-[(2R)-1-hydroxybutan-2-yl]-3-methyl-8-[4-(trifluoromethyl)phenyl]-8H-[1,2]thiazolo[3,4-b]indole-5-carboxamide], the pIC50 with NCI-H226 cells (class symbols) was 7.00 to 9.00; in the experiment with SW620 Yap KO cells (setting [1]), < 5.49; with YAP-TEAD interaction (class symbols), 7.00 to 8.00.
The matching figures for `Cc1snc2c1c1cc(C(=O)N[C@](C)(CO)c3ccccc3)ccc1n2-c1ccc(C(F)(F)F)cc1` [Example C80, N-[(2S)-1-hydroxy-2-phenylpropan-2-yl]-3-methyl-8-[4-(trifluoromethyl)phenyl]-8H-[1,2]thiazolo[3,4-b]indole-5-carboxamide]: 7.00 to 9.00, < 4.52 and 7.00 to 8.00.
The matching figures for `Cc1snc2c1c1cc(C(=O)N[C@H](c3ccccc3)[C@H](C)O)ccc1n2-c1ccc(C(F)(F)F)cc1` [Example C81, N-[(1R,2S)-2-hydroxy-1-phenylpropyl]-3-methyl-8-[4-(trifluoromethyl)phenyl]-8H-[1,2]thiazolo[3,4-b]indole-5-carboxamide]: 7.00 to 9.00, < 5.49 and 7.00 to 8.00.
The matching figures for `CC[C@@H](CO)NC(=O)c1ccc2c(c1)c1c(C)snc1n2-c1ccc(C(F)(F)F)cc1` [Example C83, N-[(2S)-1-hydroxybutan-2-yl]-3-methyl-8-[4-(trifluoromethyl)phenyl]-8H-[1,2]thiazolo [3,4-b]indole-5-carboxamide]: 7.00 to 9.00, < 4.52 and 7.00 to 8.00.
As to `Cn1cc2c3cc(S(=O)(=O)NCCCO)ccc3n(-c3ccc(C(F)(F)F)cc3)c2n1` [Example C85, N-(3-hydroxypropyl)-2-methyl-8-[4-(trifluoromethyl)phenyl]-2H,8H-pyrazolo[3,4-b]indole-5-sulfonamide], the pIC50 in the experiment with NCI-H226 cells (class symbols) is 5.00 to 6.00; with SW620 Yap KO cells (setting [1]), < 4.52; with YAP-TEAD interaction (setting [1]), < 4.52.
On to `Cn1nc2c3cc(C(=O)N[C@@H](CO)C(F)(F)F)ccc3n(-c3ccc(C(F)(F)F)cc3)c2n1` [Example C86, 2-methyl-N-[(2S)-1,1,1-trifluoro-3-hydroxypropan-2-yl]-4-[4-(trifluoromethyl)phenyl]-2H,4H-[1,2,3]triazolo [4,5-b]indole-7-carboxamide], for which the pIC50 in the experiment with NCI-H226 cells (class symbols) is 7.00 to 9.00; in the experiment with SW620 Yap KO cells (setting [1]), < 4.52; in the experiment with YAP-TEAD interaction (class symbols) it was 7.00 to 8.00.
